Assay results from PubChem BioAssay (NCI).
“And” between values parts separate entries of the source, which are not always exact repeats. Identical values can stand only once.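 Dose response: 5 concentrations. Exposure: 48 h. Format: 96-well plates. Endpoint: linear interpolation; highest concentration if not reached. GI50 = concentration required for 50% inhibition of growth. TGI marks complete inhibition of growth.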

Legend:
Assay in all cases: NCI-60 cell line screen, 48 h
HL-60(TB) leukemia = test system: HL-60(TB) leukemia
HCT-116 colon = test system: HCT-116 colon
UO-31 renal = test system: UO-31 renal
SNB-75 CNS = test system: SNB-75 CNS
MCF7 breast = test system: MCF7 breast
NCI-H460 lung = test system: NCI-H460 lung
M14 melanoma = test system: M14 melanoma
PC-3 prostate = test system: PC-3 prostate
OVCAR-3 ovarian = test system: OVCAR-3 ovarian
SF-268 CNS = test system: SF-268 CNS
A498 renal = test system: A498 renal
MDA-MB-468 breast = test system: MDA-MB-468 breast
TK-10 renal = test system: TK-10 renal
U251 CNS = test system: U251 CNS
HOP-92 NSCLC = test system: HOP-92 NSCLC
UACC-257 melanoma = test system: UACC-257 melanoma
EKVX NSCLC = test system: EKVX NSCLC
HCT-15 colon = test system: HCT-15 colon
MALME-3M melanoma = test system: MALME-3M melanoma
KM12 colon = test system: KM12 colon
SK-MEL-28 melanoma = test system: SK-MEL-28 melanoma
ACHN renal = test system: ACHN renal
786-0 renal = test system: 786-0 renal
NCI/ADR-RES ovarian = test system: NCI/ADR-RES ovarian
DU-145 prostate = test system: DU-145 prostate
T-47D breast = test system: T-47D breast
CAKI-1 renal = test system: CAKI-1 renal
SK-MEL-2 melanoma = test system: SK-MEL-2 melanoma
OVCAR-5 ovarian = test system: OVCAR-5 ovarian
CCRF-CEM leukemia = test system: CCRF-CEM leukemia
HT29 colon = test system: HT29 colon
SK-MEL-5 melanoma = test system: SK-MEL-5 melanoma
K-562 leukemia = test system: K-562 leukemia
NCI-H522 lung = test system: NCI-H522 lung
OVCAR-8 ovarian = test system: OVCAR-8 ovarian
SF-539 CNS = test system: SF-539 CNS
SF-295 CNS = test system: SF-295 CNS
LOX IMVI melanoma = test system: LOX IMVI melanoma
NCI-H226 lung = test system: NCI-H226 lung
MDA-MB-435 = test system: MDA-MB-435
HCC-2998 colon = test system: HCC-2998 colon
SK-OV-3 ovarian = test system: SK-OV-3 ovarian
HS 578T breast = test system: HS 578T breast
BT-549 breast = test system: BT-549 breast
IGROV1 ovarian = test system: IGROV1 ovarian
NCI-H23 lung = test system: NCI-H23 lung
RPMI-8226 leukemia = test system: RPMI-8226 leukemia
A549 NSCLC = test system: A549 NSCLC
COLO 205 colon = test system: COLO 205 colon
SW-620 colon = test system: SW-620 colon
HOP-62 NSCLC = test system: HOP-62 NSCLC

## CN(C)c1nc(NCCNS(=O)(=O)c2ccc(C3=Nc4c(N)nc(N)nc4NC(c4ccc(F)cc4)C3)cc2)nc(Nc2ccc(F)cc2)n1 (configuration not stated)
HL-60(TB) leukemia
  GI50: 3.12 µM
  TGI: > 100 µM
HCT-116 colon
  GI50: 4.54 µM
  TGI: > 100 µM
UO-31 renal
  GI50: > 100 µM
  TGI: > 100 µM
SNB-75 CNS
  GI50: 2.53 µM
  TGI: 74 µM
MCF7 breast
  GI50: 3.16 µM
  TGI: 43.7 µM
NCI-H460 lung
  GI50: 4.74 µM
  TGI: > 100 µM
M14 melanoma
  GI50: 3.84 µM
  TGI: 25.3 µM
PC-3 prostate
  GI50: 5.04 µM
  TGI: > 100 µM
OVCAR-3 ovarian
  GI50: 8.09 µM
  TGI: > 100 µM
SF-268 CNS
  GI50: 4.83 µM
  TGI: > 100 µM
A498 renal
  GI50: 22.1 µM
  TGI: > 100 µM
MDA-MB-468 breast
  GI50: 2.15 µM
  TGI: 6.24 µM
TK-10 renal
  GI50: > 100 µM
  TGI: > 100 µM
U251 CNS
  GI50: 6.35 µM
  TGI: > 100 µM
HOP-92 NSCLC
  GI50: 3.09 µM
  TGI: 23.3 µM
UACC-257 melanoma
  GI50: 11.4 µM
  TGI: > 100 µM
EKVX NSCLC
  GI50: 5.17 µM
  TGI: > 100 µM
HCT-15 colon
  GI50: > 100 µM
  TGI: > 100 µM
MALME-3M melanoma
  GI50: 6.28 µM
  TGI: > 100 µM
KM12 colon
  GI50: 4.69 µM
  TGI: > 100 µM
SK-MEL-28 melanoma
  GI50: 15.7 µM
  TGI: > 100 µM
ACHN renal
  GI50: > 100 µM
  TGI: > 100 µM
786-0 renal
  GI50: 4.77 µM
  TGI: > 100 µM
NCI/ADR-RES ovarian
  GI50: > 100 µM
  TGI: > 100 µM
DU-145 prostate
  GI50: 52 µM
  TGI: > 100 µM
T-47D breast
  GI50: 4.86 µM
  TGI: > 100 µM
CAKI-1 renal
  GI50: 6.5 µM
  TGI: > 100 µM
SK-MEL-2 melanoma
  GI50: 8.17 µM
  TGI: 29 µM
OVCAR-5 ovarian
  GI50: > 100 µM
  TGI: > 100 µM
CCRF-CEM leukemia
  GI50: 3.99 µM
  TGI: > 100 µM
HT29 colon
  GI50: 3.88 µM
  TGI: > 100 µM
SK-MEL-5 melanoma
  GI50: 3.36 µM
  TGI: 14.9 µM
K-562 leukemia
  GI50: 2.8 µM
  TGI: > 100 µM
NCI-H522 lung
  GI50: 34.8 µM
  TGI: > 100 µM
OVCAR-8 ovarian
  GI50: 12 µM
  TGI: > 100 µM
SF-539 CNS
  GI50: 3.89 µM
  TGI: > 100 µM
SF-295 CNS
  GI50: 6.71 µM
  TGI: > 100 µM
LOX IMVI melanoma
  GI50: 2.62 µM
  TGI: 9.13 µM
NCI-H226 lung
  GI50: > 100 µM
  TGI: > 100 µM
MDA-MB-435
  GI50: 5.93 µM
  TGI: > 100 µM
HCC-2998 colon
  GI50: 4.22 µM
  TGI: > 100 µM
SK-OV-3 ovarian
  GI50: > 100 µM
  TGI: > 100 µM
HS 578T breast
  GI50: 5.7 µM
  TGI: > 100 µM
BT-549 breast
  GI50: 3.26 µM
  TGI: 18.2 µM
IGROV1 ovarian
  GI50: 5.01 µM
  TGI: > 100 µM
NCI-H23 lung
  GI50: 54.1 µM
  TGI: > 100 µM
RPMI-8226 leukemia
  GI50: 5.25 µM
  TGI: > 100 µM
A549 NSCLC
  GI50: > 100 µM
  TGI: > 100 µM
COLO 205 colon
  GI50: 11.8 µM
  TGI: > 100 µM
SW-620 colon
  GI50: 8.27 µM
  TGI: > 100 µM
HOP-62 NSCLC
  GI50: 96 µM
  TGI: > 100 µM

## CC(=O)N1N=C(c2ccc(Nc3ccnc4cc(Cl)ccc34)cc2)CC1c1ccc(Cl)cc1 (configuration not stated)
MDA-MB-468 breast
  GI50: 2.41 µM
  TGI: > 100 µM

## Cc1ccc(C(NC(=O)c2ccccc2)c2ccc3cccnc3c2O)cc1 (configuration not stated)
MDA-MB-468 breast
  GI50: 0.219 µM
  TGI: 0.788 µM

## Oc1ccc(-c2nc3ccc4[nH]ncc4c3c3c2CCCC3)c(F)c1
MDA-MB-468 breast
  GI50: 4.06 µM
  TGI: 20.3 µM

## Nc1nc(N)c(C=Nc2ccc(Br)cc2)c(Nc2ccc(Br)cc2)n1
MDA-MB-468 breast
  GI50: 11 µM
  TGI: 23.3 µM

## FC(F)(F)c1ccc(-c2cnc(-n3cc(COCCN4CCCCC4)nn3)nc2NC2CCCCCC2)cc1
MDA-MB-468 breast
  GI50: 3.54 µM
  TGI: 7.37 µM

## CCC(c1ccc(OC)cc1)C(CC)c1ccc(O)c(CN2CCN(C)CC2)c1 (configuration not stated)
MDA-MB-468 breast
  GI50: 2.5 µM
  TGI: 9.77 µM

## CC1=C(/C=C/C(C)=C/C=C/C(C)=C/C=N/NC(=S)NC(=S)N/N=C/C=C(C)/C=C/C=C(C)/C=C/C2=C(C)CCCC2(C)C)C(C)(C)CCC1
MDA-MB-468 breast
  GI50: 3.25 µM and 2.84 µM
  TGI: 10.5 µM and 10.2 µM

## N#Cc1c(Br)n(C2OC(CO)C(O)C2O)c2ncnc(N)c12 (configuration not stated)
MDA-MB-468 breast
  GI50: 2.01 µM
  TGI: 6.12 µM

## COc1ccc(/C=c2\sc3n(c2=O)C2C(NN=3)N(C)C(=O)N2C)cc1 (configuration not stated)
MDA-MB-468 breast
  GI50: 0.231 µM
  TGI: 0.783 µM

## COC1=C(C)C(=O)c2c(c(CCCl)c3n2CCC3O)C1=O (configuration not stated)
MDA-MB-468 breast
  GI50: 11.1 µM
  TGI: 34.5 µM
